Reference: ChEMBL document CHEMBL1250443, “Microarray-based method for monitoring yeast overexpression strains reveals small-molecule targets in TOR pathway” (Nat Chem Biol, 2006)

Tests used:
[1] = Inhibition of TOR signaling in wild-type Saccharomyces cerevisiae transformed with overexpression plasmids assessed as increased YOR042W gene expression by microarray
[2] = Inhibition of TOR signaling in wild-type Saccharomyces cerevisiae transformed with overexpression plasmids assessed as decreased ATX2 gene expression by microarray
Saccharomyces cerevisiae = assay: Increase of YDR514C gene expression in wild-type Saccharomyces cerevisiae transformed with overexpression plasmids by microarray; assay type: functional
[3] = Inhibition of TOR signaling in wild-type Saccharomyces cerevisiae transformed with overexpression plasmids assessed as decreased SHO1 gene expression by microarray
[4] = Inhibition of TOR signaling in wild-type Saccharomyces cerevisiae transformed with overexpression plasmids assessed as decreased YCL036W gene expression by microarray
[5] = Inhibition of TOR signaling in wild-type Saccharomyces cerevisiae transformed with overexpression plasmids assessed as increased ZDS2 gene expression by microarray
[6] = Inhibition of TOR signaling in wild-type Saccharomyces cerevisiae transformed with overexpression plasmids assessed as increased BRE1 gene expression by microarray
[7] = Inhibition of TOR signaling in wild-type Saccharomyces cerevisiae transformed with overexpression plasmids assessed as decreased YDL186W gene expression by microarray
[8] = Inhibition of TOR signaling in wild-type Saccharomyces cerevisiae transformed with overexpression plasmids assessed as decreased TPO4 gene expression by microarray
[9] = Inhibition of TOR signaling in wild-type Saccharomyces cerevisiae transformed with overexpression plasmids assessed as increased THI21 gene expression by microarray
[10] = Inhibition of TOR signaling in wild-type Saccharomyces cerevisiae transformed with overexpression plasmids assessed as increased RTT106 gene expression by microarray
[11] = Inhibition of TOR signaling in wild-type Saccharomyces cerevisiae transformed with overexpression plasmids assessed as increased IML2 gene expression by microarray
[12] = Inhibition of TOR signaling in wild-type Saccharomyces cerevisiae transformed with overexpression plasmids assessed as decreased CAJ1 gene expression by microarray
[13] = Inhibition of TOR signaling in wild-type Saccharomyces cerevisiae transformed with overexpression plasmids assessed as increased YFR044C gene expression by microarray
[14] = Inhibition of TOR signaling in wild-type Saccharomyces cerevisiae transformed with overexpression plasmids assessed as decreased YLR224W gene expression by microarray
[15] = Inhibition of TOR signaling in wild-type Saccharomyces cerevisiae transformed with overexpression plasmids assessed as increased YFL030W gene expression by microarray
[16] = Inhibition of TOR signaling in wild-type Saccharomyces cerevisiae transformed with overexpression plasmids assessed as decreased HOL1 gene expression by microarray
[17] = Inhibition of TOR signaling in wild-type Saccharomyces cerevisiae transformed with overexpression plasmids assessed as increased GPM3 gene expression by microarray
[18] = Inhibition of TOR signaling in wild-type Saccharomyces cerevisiae transformed with overexpression plasmids assessed as decreased PTC4 gene expression by microarray
[19] = Inhibition of TOR signaling in wild-type Saccharomyces cerevisiae transformed with overexpression plasmids assessed as decreased YKL174C gene expression by microarray

SMILES: CO[C@H]1C[C@@H]2CC[C@@H](C)[C@@](O)(O2)C(=O)C(=O)N2CCCC[C@H]2C(=O)O[C@H]([C@H](C)C[C@@H]2CC[C@@H](O)[C@H](OC)C2)CC(=O)[C@H](C)/C=C(\C)[C@@H](O)[C@@H](OC)C(=O)[C@H](C)C[C@H](C)/C=C/C=C/C=C/1C [SIROLIMUS]
- fold change (FC) [1]: 2.7
- fold change (FC) [2]: -2
- fold change (FC) (Saccharomyces cerevisiae): -3.1
- fold change (FC) [3]: -4.4
- fold change (FC) [4]: -2.1
- fold change (FC) [5]: 13.6
- fold change (FC) [6]: 4.4
- fold change (FC) [7]: -3.3
- fold change (FC) [8]: -5.8
- fold change (FC) [9]: 2.2
- fold change (FC) [10]: 8.3
- fold change (FC) [11]: 24.4
- fold change (FC) [12]: -5.6
- fold change (FC) [13]: 4.7
- fold change (FC) [14]: -2.9
- fold change (FC) [15]: 3.2
- fold change (FC) [16]: -4.5
- fold change (FC) [17]: 2.5
- fold change (FC) [18]: -4
- fold change (FC) [19]: -5.6
